Reference: ChEMBL document CHEMBL3217741, “Synthesis of 1,4-triazole linked zanamivir dimers as highly potent inhibitors of influenza A and B” (Medchemcomm, 2013)

system: Influenza B virus; test: microbe, parasite or virus in culture; settings: B/Harbin/07/94, MDCK, 72 h
Description: Antiviral activity against Influenza B virus (B/Harbin/07/94) infected in MDCK cells assessed as reduction of virus-induced cytopathic effect after 72 hrs by MTT assay

| SMILES | EC50 [nM] |
| --- | --- |
| CC(=O)N[C@H]1[C@H]([C@H](OC(=O)NCCCCCCCn2cc(CCCCNC(=O)O[C@@H]([C@@H]3OC(C(=O)O)=C[C@H](NC(=N)N)[C@H]3NC(C)=O)[C@H](O)CO)nn2)[C@H](O)CO)OC(C(=O)O)=C[C@@H]1NC(=N)N | 0.32 |
| CC(=O)N[C@H]1[C@H]([C@H](OC(=O)NCCCCCCCCc2cn(CCCCCCCNC(=O)O[C@@H]([C@@H]3OC(C(=O)O)=C[C@H](NC(=N)N)[C@H]3NC(C)=O)[C@H](O)CO)nn2)[C@H](O)CO)OC(C(=O)O)=C[C@@H]1NC(=N)N | 0.39 |
| CC(=O)N[C@H]1[C@H]([C@H](OC(=O)NCCCn2cc(CCCc3cn(CCCNC(=O)O[C@@H]([C@@H]4OC(C(=O)O)=C[C@H](NC(=N)N)[C@H]4NC(C)=O)[C@H](O)CO)nn3)nn2)[C@H](O)CO)OC(C(=O)O)=C[C@@H]1NC(=N)N | 0.65 |
| CC(=O)N[C@H]1[C@H]([C@H](OC(=O)NCCCCCn2cc(CCCCCc3cn(CCCCCNC(=O)O[C@@H]([C@@H]4OC(C(=O)O)=C[C@H](NC(=N)N)[C@H]4NC(C)=O)[C@H](O)CO)nn3)nn2)[C@H](O)CO)OC(C(=O)O)=C[C@@H]1NC(=N)N | 0.88 |
| CC(=O)N[C@H]1[C@H]([C@H](OC(=O)NCCCn2cc(CCNC(=O)O[C@@H]([C@@H]3OC(C(=O)O)=C[C@H](NC(=N)N)[C@H]3NC(C)=O)[C@H](O)CO)nn2)[C@H](O)CO)OC(C(=O)O)=C[C@@H]1NC(=N)N | 0.51 |
| CC(=O)N[C@H]1[C@H]([C@H](OC(=O)NCCCCc2cn(CCCNC(=O)O[C@@H]([C@@H]3OC(C(=O)O)=C[C@H](NC(=N)N)[C@H]3NC(C)=O)[C@H](O)CO)nn2)[C@H](O)CO)OC(C(=O)O)=C[C@@H]1NC(=N)N | 0.43 |
| CC(=O)N[C@H]1[C@H]([C@H](OC(=O)NCCCCCn2cc(CCCCNC(=O)O[C@@H]([C@@H]3OC(C(=O)O)=C[C@H](NC(=N)N)[C@H]3NC(C)=O)[C@H](O)CO)nn2)[C@H](O)CO)OC(C(=O)O)=C[C@@H]1NC(=N)N | 0.79 |
| CCOC(=O)C1=C[C@@H](OC(CC)CC)[C@H](NC(C)=O)[C@@H](N)C1 [OSELTAMIVIR] | 583 |
| CC(=O)N[C@H]1[C@H]([C@H](O)[C@H](O)CO)OC(C(=O)O)=C[C@@H]1NC(=N)N [ZANAMIVIR] | 149 |
